Test results taken from patent US20250129067A1 (Progentos Therapeutics, Inc., priority 2021, published 2025).
pIC50: −log10 of the molar value. Read-outs that look alike come from different tables or passages of the source.

Columns and labels:
PDGFRα = PDGFRα (Homo sapiens (Human), UniProt P16234); test: PDGFRα kinase enzyme assay (Promega PDGFRα Kinase Enzyme System, ADP-Glo); type: biochemical; details: 150 uM ATP
Summary of the method: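 Purified PDGFRα protein (20 ng) reacted with test compound per the Promega kinase system protocol. ADP formed was measured by ADP-Glo luminescence against a standard curve, giving IC50.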

[1] = test system: Oligodendrocyte progenitor cells (OPCs); test: In vitro OPC differentiation assay, GPR17 expression (immunocytochemistry); details: 72 hours; for GPR17 Fold Induction (Over Vehicle; 3 μM): 3 μM (10× concentration, final 0.3 μM), fold change over vehicle; for GPR17 Fold Induction (Over Vehicle; 5 μM): primary rat OPCs, 5 μM (10x; final 0.5 μM per method), percent GPR17+ cells as fold change over vehicle
[2] = 11-point dose response, 10,000 nM to 0.169 nM, BLQ = below limit of quantitation, read-out: IC50 Values on PDGFRα Kinase Inhibition, IC50
[3] = 20 ng purified PDGFRα, Poly (Glu4Tyr1) substrate, two hours, 11-point dose response, read-out: IC50 Values on PDGFRα Kinase Inhibition

PDGFRα, sequence (P16234 24-1089): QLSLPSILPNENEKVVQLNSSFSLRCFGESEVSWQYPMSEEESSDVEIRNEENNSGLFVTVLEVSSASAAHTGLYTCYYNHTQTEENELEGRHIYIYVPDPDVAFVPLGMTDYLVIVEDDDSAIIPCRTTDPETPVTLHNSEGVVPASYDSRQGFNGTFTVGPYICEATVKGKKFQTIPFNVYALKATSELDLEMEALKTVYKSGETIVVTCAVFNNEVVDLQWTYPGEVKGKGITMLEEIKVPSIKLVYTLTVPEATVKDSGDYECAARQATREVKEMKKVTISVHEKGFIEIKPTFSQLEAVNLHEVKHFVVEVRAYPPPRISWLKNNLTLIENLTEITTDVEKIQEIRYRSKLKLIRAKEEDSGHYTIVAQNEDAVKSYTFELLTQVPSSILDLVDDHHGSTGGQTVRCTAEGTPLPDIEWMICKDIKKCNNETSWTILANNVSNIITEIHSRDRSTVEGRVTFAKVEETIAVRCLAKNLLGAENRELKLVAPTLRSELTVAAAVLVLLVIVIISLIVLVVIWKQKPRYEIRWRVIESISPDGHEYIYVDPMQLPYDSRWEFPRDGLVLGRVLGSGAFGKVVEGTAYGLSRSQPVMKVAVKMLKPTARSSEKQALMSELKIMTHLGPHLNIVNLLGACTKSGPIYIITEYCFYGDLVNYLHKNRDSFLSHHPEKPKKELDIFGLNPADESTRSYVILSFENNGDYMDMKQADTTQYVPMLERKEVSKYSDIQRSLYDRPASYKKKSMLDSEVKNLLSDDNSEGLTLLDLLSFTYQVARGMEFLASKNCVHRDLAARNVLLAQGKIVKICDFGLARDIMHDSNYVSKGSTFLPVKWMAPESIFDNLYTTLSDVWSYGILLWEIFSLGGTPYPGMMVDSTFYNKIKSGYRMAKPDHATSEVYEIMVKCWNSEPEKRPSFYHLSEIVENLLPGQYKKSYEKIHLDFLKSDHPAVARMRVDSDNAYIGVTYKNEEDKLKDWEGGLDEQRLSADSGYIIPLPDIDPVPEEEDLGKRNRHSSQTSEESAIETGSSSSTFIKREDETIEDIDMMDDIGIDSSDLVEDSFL

For `CC(C)(C)OC(=O)N1CCN(c2cnn3cc(-c4ccccc4)ccc23)CC1` [Compound 206, tert-butyl 4-(6-phenylpyrazolo[1,5-a]pyridin-3-yl)piperazine-1-carboxylate], the pIC50 (PDGFRα; [2]) was 5.27 and the “GPR17 Fold Induction (Over Vehicle; 3 μM)” value [1] was 3.32.

`Cn1cc(-c2ccn3c(N4CCN(c5ncc(Cc6ccccc6)cn5)CC4)cnc3n2)cn1` [Compound 121, 3-(4-(5-benzylpyrimidin-2-yl)piperazin-1-yl)-7-(1-methyl-1H-pyrazol-4-yl)imidazo[1,2-a]pyrimidine] was tested, and the pIC50 (PDGFRα; [2]) was 6.09 and the “GPR17 Fold Induction (Over Vehicle; 3 μM)” value [1] was 4.71.

In the case of `CC(C)(C)OC(=O)N1CCN(c2cnn3cc(C4CCOCC4)ccc23)CC1` [Compound 224, tert-butyl-4-(6-(tetrahydro-2H-pyran-4-yl)pyrazolo[1,5-a]pyridin-3-yl)piperazine-1-carboxylate], the pIC50 (PDGFRα; [2]) was less than 5.00 and the “GPR17 Fold Induction (Over Vehicle; 3 μM)” value [1] was 0.66.

`CC1CN(c2ncc(Cc3ccccc3)cn2)CCN1c1cnn2cc(-c3cnn(C)c3)ccc12` (centres unmarked) [Compound 142, 3-(4-(5-benzylpyrimidin-2-yl)-2-methylpiperazin-1-yl)-6-(1-methyl-1H-pyrazol-4-yl)pyrazolo[1,5-a]pyridine] was tested, and the pIC50 (PDGFRα; [2]) was 5.02 and the “GPR17 Fold Induction (Over Vehicle; 3 μM)” value [1] was 5.85.

With `Cn1cc(-c2ccc3c(N4CCN(C(=O)OC5CC(F)(F)C5)CC4)cnn3c2)cn1` [Compound 307, 3,3-difluorocyclobutyl 4-[6-(1-methyl-1H-pyrazol-4-yl)pyrazolo[1,5-a]pyridin-3-yl]piperazine-1-carboxylate] the pIC50 (PDGFRα; [2]) was 5.67 and the “GPR17 Fold Induction (Over Vehicle; 3 μM)” value [1] was 4.20.

In the case of `Cn1cc(-c2cc3ncc(N4CCCN(C(=O)OC(C)(C)C)CC4)n3cn2)cn1` [Compound 85, tert-butyl 4-(7-(1-methyl-1H-pyrazol-4-yl)imidazo[1,2-c]pyrimidin-3-yl)-1,4-diazepane-1-carboxylate], the pIC50 (PDGFRα; [2]) was 5.80 and the “GPR17 Fold Induction (Over Vehicle; 3 μM)” value [1] was 0.82.

In the case of `Cn1cc(-c2ccc3c(N4CCN(c5ncc(C(=O)c6ccc(F)cc6)cn5)CC4)cnn3c2)cn1` [Compound 25, (4-fluorophenyl)(2-{4-[6-(1-methyl-1H-pyrazol-4-yl)pyrazolo[1,5-a]pyridin-3-yl]piperazin-1-yl}pyrimidin-5-yl)methanone], the pIC50 (PDGFRα; [2]) was less than 5.00 and the “GPR17 Fold Induction (Over Vehicle; 3 μM)” value [1] was 1.07.

In the case of `CC(C)(C)OC(=O)N1CCN(c2cnn3cc(-c4ccccc4F)ccc23)CC1` [Compound 209, tert-butyl-4-(6-(2-fluorophenyl)pyrazolo[1,5-a]pyridin-3-yl)piperazine-1-carboxylate], the pIC50 (PDGFRα; [2]) was less than 5.00 and the “GPR17 Fold Induction (Over Vehicle; 3 μM)” value [1] was 2.02.

For `CN(CCN(C)c1cnc2cc(-c3cccnc3)ncn12)C(=O)OC(C)(C)C` [Compound 99, tert-butyl methyl(2-(methyl(7-(pyridin-3-yl)imidazo[1,2-c]pyrimidin-3-yl)amino)ethyl)carbamate], the pIC50 (PDGFRα; [2]) was less than 5.00 and the “GPR17 Fold Induction (Over Vehicle; 3 μM)” value [1] was 0.62.

In the case of `CN(Cc1ccccc1)C(=O)C1CCC(c2cnn3cc(-c4cnn(C)c4)ccc23)CC1` (centres unmarked) [Compound 139, N-benzyl-N-methyl-4-(6-(1-methyl-1H-pyrazol-4-yl)pyrazolo[1,5-a]pyridin-3-yl)cyclohexane-1-carboxamide], the pIC50 (PDGFRα; [2]) was 5.06 and the “GPR17 Fold Induction (Over Vehicle; 3 μM)” value [1] was 3.87.

In the case of `Cn1cc(-c2ccc3c(N4CCN(S(=O)(=O)NCc5ccccc5)CC4)cnn3c2)cn1` [Compound 159, N-benzyl-4-[6-(1-methyl-1H-pyrazol-4-yl)pyrazolo[1,5-a]pyridin-3-yl]piperazine-1-sulfonamide], the pIC50 (PDGFRα; [2]) was 6.35 and the “GPR17 Fold Induction (Over Vehicle; 3 μM)” value [1] was 3.62.

For `COc1ccc(-c2ccc3c(N4CCN(C(=O)OC(C)(C)C)CC4)cnn3c2)cc1` [Compound 210, tert-butyl 4-(6-(4-methoxyphenyl)pyrazolo[1,5-a]pyridin-3-yl)piperazine-1-carboxylate], the pIC50 (PDGFRα; [2]) was 5.13 and the “GPR17 Fold Induction (Over Vehicle; 3 μM)” value [1] was 4.38.

`CC(C)(C)OC(=O)N1CCN(c2cnn3cc(C4CCCC4)ccc23)CC1` [Compound 214, tert-butyl 4-(6-cyclopentylpyrazolo[1,5-a]pyridin-3-yl)piperazine-1-carboxylate] was tested, and the pIC50 (PDGFRα; [2]) was less than 5.00 and the “GPR17 Fold Induction (Over Vehicle; 3 μM)” value [1] was 2.00.

For `COc1ccc(-c2cncc(N[C@@H](C)c3cccc(NC(=O)c4cncc(C)c4)c3)n2)cc1OC` [Seralutinib, seralutinib, reference compound], the pIC50 (PDGFRα; [3]) was 6.64 and the “GPR17 Fold Induction (Over Vehicle; 5 μM)” value [1] was 3.53.

In the case of `Cn1cc(-c2ccc3c(N4CCN(c5ncc(C(=O)C(F)(F)F)cn5)CC4)cnn3c2)cn1` [Compound 284, 2,2,2-trifluoro-1-(2-(4-(6-(1-methyl-1H-pyrazol-4-yl)pyrazolo[1,5-a]pyridin-3-yl)piperazin-1-yl)pyrimidin-5-yl)ethan-1-one], the pIC50 (PDGFRα; [2]) was less than 5.00 and the “GPR17 Fold Induction (Over Vehicle; 3 μM)” value [1] was 6.21.

With `Cn1cc(-c2ccc3c(N4CCN(c5ncc(Oc6ccccc6)cn5)CC4)cnn3c2)cn1` [Compound 166, 6-(1-methyl-1H-pyrazol-4-yl)-3-(4-(5-phenoxypyrimidin-2-yl)piperazin-1-yl)pyrazolo[1,5-a]pyridine] the pIC50 (PDGFRα; [2]) was 5.45 and the “GPR17 Fold Induction (Over Vehicle; 3 μM)” value [1] was 6.36.

With `COc1ccc(CN2CCN(c3cnn4cc(-c5cnn(C)c5)ccc34)CC2)cc1` [Compound 253, 3-[4-(4-methoxybenzyl)piperazin-1-yl]-6-(1-methyl-1H-pyrazol-4-yl)pyrazolo[1,5-a]pyridine] the pIC50 (PDGFRα; [2]) was less than 5.00 and the “GPR17 Fold Induction (Over Vehicle; 3 μM)” value [1] was 0.97.

For `CN1CCC(OC(=O)N2CCN(c3cnn4cc(-c5cnn(C)c5)ccc34)CC2)CC1` [Compound 19, 1-methylpiperidin-4-yl 4-[6-(1-methyl-1H-pyrazol-4-yl)pyrazolo[1,5-a]pyridin-3-yl]piperazine-1-carboxylate], the pIC50 (PDGFRα; [2]) was less than 5.00 and the “GPR17 Fold Induction (Over Vehicle; 3 μM)” value [1] was 0.83.

For `C[C@@H](OC(=O)N1CCN(c2cnn3cc(-c4cnn(C)c4)ccc23)CC1)C1CCCCC1` [Compound 57, (1R)-1-cyclohexylethyl 4-[6-(1-methyl-1H-pyrazol-4-yl)pyrazolo[1,5-a]pyridin-3-yl]piperazine-1-carboxylate], the pIC50 (PDGFRα; [2]) was 5.25 and the “GPR17 Fold Induction (Over Vehicle; 3 μM)” value [1] was 5.28.

For `CC(C)(C)OC(=O)N1CCN(c2cnn3cc(-c4ccc(F)cc4)ccc23)CC1` [Compound 207, tert-butyl 4-(6-(4-fluorophenyl)pyrazolo[1,5-a]pyridin-3-yl)piperazine-1-carboxylate], the pIC50 (PDGFRα; [2]) was 5.32 and the “GPR17 Fold Induction (Over Vehicle; 3 μM)” value [1] was 2.24.

In the case of `CN(CCN(C)c1cnc2nc(-c3cnn(C)c3)ccn12)C(=O)OC(C)(C)C` [Compound 96], the pIC50 (PDGFRα; [2]) was less than 5.00 and the “GPR17 Fold Induction (Over Vehicle; 3 μM)” value [1] was 0.50.

In the case of `Cn1cc(-c2ccn3c(N4CCC(C(=O)OC(C)(C)C)C4)cnc3n2)cn1` (centres unmarked) [Compound 110, tert-butyl 1-(7-(1-methyl-1H-pyrazol-4-yl)imidazo[1,2-a]pyrimidin-3-yl)pyrrolidine-3-carboxylate], the pIC50 (PDGFRα; [2]) was less than 5.00 and the “GPR17 Fold Induction (Over Vehicle; 3 μM)” value [1] was 0.85.

`Cn1cc(-c2ccc3c(N4CC5(CN(c6ncc(Cc7ccccc7)cn6)C5)C4)cnn3c2)cn1` [Compound 48, 3-[6-(5-benzylpyrimidin-2-yl)-2,6-diazaspiro[3.3]hept-2-yl]-6-(1-methyl-pyrazol-4-yl)pyrazolo[1,5-a]pyridine] was tested, and the pIC50 (PDGFRα; [2]) was less than 5.00 and the “GPR17 Fold Induction (Over Vehicle; 3 μM)” value [1] was 2.75.

In the case of `Cc1ccc(F)c(NC(=O)Nc2ccc(-c3cccc4[nH]nc(N)c34)cc2)c1` [Linifanib (ABT-869), linifanib, reference compound], the pIC50 (PDGFRα; [3]) was 5.92 and the “GPR17 Fold Induction (Over Vehicle; 5 μM)” value [1] was 4.68.

For `Cn1cnc(-c2ccc3c(N4CCN(C(=O)OC(C)(C)C)CC4)cnn3c2)c1` [Compound 226, tert-butyl 4-(6-(1-methyl-1H-imidazol-4-yl)pyrazolo[1,5-a]pyridin-3-yl)piperazine-1-carboxylate], the pIC50 (PDGFRα; [2]) was 5.85 and the “GPR17 Fold Induction (Over Vehicle; 3 μM)” value [1] was 11.69.

For `Cn1cc(-c2cc3ncc(N4CCN(C(=O)NCc5ccc(C(F)(F)F)cc5)CC4)n3cn2)cn1` [Compound 118, 4-(7-(1-methyl-1H-pyrazol-4-yl)imidazo[1,2-c]pyrimidin-3-yl)-N-(4-(trifluoromethyl)benzyl)piperazine-1-carboxamide], the pIC50 (PDGFRα; [2]) was less than 5.00 and the “GPR17 Fold Induction (Over Vehicle; 3 μM)” value [1] was 0.93.

For `Cn1cc(-c2ccc3c(N4CC(c5ncc(Cc6ccccc6)cn5)C4)cnn3c2)cn1` [Compound 72, 3-[3-(5-benzylpyrimidin-2-yl)azetidin-1-yl]-6-(1-methyl-1H-pyrazol-4-yl)pyrazolo[1,5-a]pyridine], the pIC50 (PDGFRα; [2]) was 5.53 and the “GPR17 Fold Induction (Over Vehicle; 3 μM)” value [1] was 4.75.

With `CN(Cc1ccc(Cl)cc1)C(=O)N1CCN(c2cnn3cc(-c4cnn(C)c4)ccc23)CC1` [Compound 278, N-(4-chlorobenzyl)-N-methyl-4-[6-(1-methyl-1H-pyrazol-4-yl)pyrazolo[1,5-a]pyridin-3-yl]piperazine-1-carboxamide] the pIC50 (PDGFRα; [2]) was 5.85 and the “GPR17 Fold Induction (Over Vehicle; 3 μM)” value [1] was 6.13.

For `COCCn1cc(-c2ccn3c(N4CCCN(C(=O)OC(C)(C)C)CC4)cnc3n2)cn1` [Compound 105, tert-butyl 4-(7-(1-(2-methoxyethyl)-1H-pyrazol-4-yl)imidazo[1,2-a]pyrimidin-3-yl)-1,4-diazepane-1-carboxylate], the pIC50 (PDGFRα; [2]) was less than 5.00 and the “GPR17 Fold Induction (Over Vehicle; 3 μM)” value [1] was 0.46.

In the case of `CC(C)(C)OC(=O)N1CCN(c2cnn3cc(CCCO)ccc23)CC1` [Compound 204, tert-butyl 4-(6-(3-hydroxypropyl)pyrazolo[1,5-a]pyridin-3-yl)piperazine-1-carboxylate], the pIC50 (PDGFRα; [2]) was less than 5.00 and the “GPR17 Fold Induction (Over Vehicle; 3 μM)” value [1] was 1.20.

For `Cn1cc(-c2cc3ncc(N4CCN(C(=O)OC(C)(C)C)CC4)n3cn2)cn1` [Compound 83, tert-butyl 4-(7-(1-methyl-1H-pyrazol-4-yl)imidazo[1,2-c]pyrimidin-3-yl)piperazine-1-carboxylate], the pIC50 (PDGFRα; [2]) was 6.02 and the “GPR17 Fold Induction (Over Vehicle; 3 μM)” value [1] was 6.49.
